A value given as a limit tells only on which side of the number the result lay.

The test system of the test is MOLT-4 cancer cell line. In words: Cell proliferation assay, MOLT-4 cancer cell line (ATPlite).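 Further: luminescence read-out, percent growth versus compound-free DMSO wells as maximum growth, start-of-incubation signal separating growth from cell death, IC50 from logistic curve fit.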 As to conditions: Homo sapiens, MOLT-4; 72 hours incubation, ATPlite 1Step; read-out: IC50 MOLT-4 cell proliferation. In kind it is cell-based.
Method: 5 μL of compound solution was added and the plates were incubated for an additional 72 hours after which 25 μL of ATPlite 1Step™ (PerkinElmer, Groningen, The Netherlands) solution was added to each well. Luminescence was recorded on an Envision multimode reader. The cell signal at the start of incubation was recorded separately in order to distinguish between cell population growth and cell death. In addition, maximum growth was determined by incubation of a duplicate without compound in the presence of 0.4% DMSO. Percentage growth was used as the main y-axis signal. IC50s were fitted by non-linear regression using IDBS XLfit™5 using a 4-parameter logistic curve, yielding a maximum signal, minimum signal, hill-parameter and IC50.
Regarding `COc1cc(N2CCN(C)CC2)ccc1Nc1ncc2c(n1)-n1ccc(C(=O)Nc3c(C)cccc3C#N)c1CC2` [Example 133, N-(2-cyano-6-methyl-phenyl)-2-[2-methoxy-4-(4-methylpiperazin-1-yl)anilino]-5,6-dihydropyrimido[4,5-e]indolizine-7-carboxamide], the IC50 was under 50 nM.

Regarding `CCc1nn(C2COC2)c(CC)c1NC(=O)c1ccn2c1CCc1cnc(Nc3ccc(N4CCN(C)CC4)cc3OC)nc1-2` [Example 142, N-[3,5-diethyl-1-(oxetan-3-yl)pyrazol-4-yl]-2-[2-methoxy-4-(4-methylpiperazin-1-yl)anilino]-5,6-dihydropyrimido[4,5-e]indolizine-7-carboxamide], the IC50 was in the range of 50 to 150 nM.

Consider `COc1cc(N2CCN(C)CC2)ccc1Nc1ncc2c(n1)-n1ccc(C(=O)Nc3c(C)cccc3OC)c1CC2` [Example 10, N-(2-methoxy-6-methyl-phenyl)-2-[2-methoxy-4-(4-methylpiperazin-1-yl)anilino]-5,6-dihydropyrimido[4,5-e]indolizine-7-carboxamide], for which the IC50 was 50 to 150 nM.

In the case of `CCc1nn(CCOC)c(CC)c1NC(=O)c1ccn2c1CCc1cnc(Nc3ccc(OC4CNC4)cc3OC)nc1-2` [Example 93, 2-[4-(Azetidin-3-yloxy)-2-methoxy-anilino]-N-[3,5-diethyl-1-(2-methoxyethyl)pyrazol-4-yl]-5,6-dihydropyrimido[4,5-e]indolizine-7-carboxamide], the IC50 was under 50 nM.

Regarding `COc1cc(N2CCN(C(=O)C3(C)CNC3)CC2)ccc1Nc1ncc2c(n1)-n1ccc(C(=O)Nc3c(C)cccc3C)c1CC2` [Example 130, N-(2,6-dimethylphenyl)-2-[2-methoxy-4-[4-(3-methylazetidine-3-carbonyl)piperazin-1-yl]anilino]-5,6-dihydropyrimido[4,5-e]indolizine-7-carboxamide], the IC50 was under 50 nM.

As to `CCc1cccc(CC)c1NC(=O)c1ccn2c1CCc1cnc(Nc3ccc(-c4cnn(C)c4)cc3OC)nc1-2` [Example 38, N-(2,6-diethylphenyl)-2-[2-methoxy-4-(1-methylpyrazol-4-yl)anilino]-5,6-dihydropyrimido[4,5-e]indolizine-7-carboxamide], the IC50 was in the range of 50 to 150 nM.

As for `Cc1cc(N2CCNCC2)ccc1Nc1ncc2c(n1)-n1ccc(C(=O)Nc3c(C)cccc3Cl)c1CC2` [Example 78, N-(2-chloro-6-methyl-phenyl)-2-(2-methyl-4-piperazin-1-yl-anilino)-5,6-dihydropyrimido[4,5-e]indolizine-7-carboxamide], the IC50 was under 50 nM.

Take `COCCn1nc(C)c(NC(=O)c2ccn3c2ccc2cnc(Nc4ccc(N5CCNCC5)cc4OC)nc23)c1C` [Example 96, N-[1-(2-methoxyethyl)-3,5-dimethyl-pyrazol-4-yl]-2-(2-methoxy-4-piperazin-1-yl-anilino)pyrimido[4,5-e]indolizine-7-carboxamide]: the IC50 is under 50 nM.

For `COc1cc(C(=O)N[C@@H]2CCNC[C@@H]2F)ccc1Nc1ncc2c(n1)-n1ccc(C(=O)Nc3c(C)cccc3C)c1CC2` [Example 118, N-(2,6-dimethylphenyl)-2-[4-[[(3S,4R)-3-fluoro-4-piperidyl]carbamoyl]-2-methoxy-anilino]-5,6-dihydropyrimido[4,5-e]indolizine-7-carboxamide], the IC50 was under 50 nM.

On to `COc1cc(C(=O)NC2CC2)ccc1Nc1ncc2c(n1)-n1ccc(C(=O)Nc3c(C)cccc3C)c1CC2` [Example 126, 2-[4-(cyclopropylcarbamoyl)-2-methoxy-anilino]-N-(2,6-dimethylphenyl)-5,6-dihydropyrimido[4,5-e]indolizine-7-carboxamide], for which the IC50 was under 50 nM.

For `CCN1CCCN(C(=O)c2ccc(Nc3ncc4c(n3)-n3ccc(C(=O)Nc5c(C)cccc5C)c3CC4)c(OC)c2)CC1` [Example 124, N-(2,6-dimethylphenyl)-2-[4-(4-ethyl-1,4-diazepane-1-carbonyl)-2-methoxy-anilino]-5,6-dihydropyrimido[4,5-e]indolizine-7-carboxamide], the IC50 is under 50 nM.

As to `CCc1cccc(CC)c1NC(=O)c1ccn2c1CCc1cnc(Nc3ccc(OC4CCN(C)CC4)cc3OC)nc1-2` [Example 43, N-(2,6-diethylphenyl)-2-[2-methoxy-4-[(1-methyl-4-piperidyl)oxy]anilino]-5,6-dihydropyrimido[4,5-e]indolizine-7-carboxamide], the IC50 was under 50 nM.

As to `COc1cc(N2CCN(C)CC2)ccc1Nc1ncc2c(n1)-n1ccc(C(=O)Nc3c(C)nn(CC4CCO4)c3C)c1CC2` (centres unmarked) [Example 140, N-[3,5-dimethyl-1-(oxetan-2-ylmethyl)pyrazol-4-yl]-2-[2-methoxy-4-(4-methylpiperazin-1-yl)anilino]-5,6-dihydropyrimido[4,5-e]indolizine-7-carboxamide], the IC50 was 50 to 150 nM.

With `COc1cc(C(=O)NC2CCOCC2)ccc1Nc1ncc2c(n1)-n1ccc(C(=O)Nc3c(C)cccc3C)c1CC2` [Example 103, N-(2,6-dimethylphenyl)-2-[2-methoxy-4-(tetrahydropyran-4-ylcarbamoyl)anilino]-5,6-dihydropyrimido[4,5-e]indolizine-7-carboxamide], the IC50 is under 50 nM.

Consider `COCCOCCOCCn1nc(C)c(NC(=O)c2ccn3c2CCc2cnc(Nc4ccc(OCCOC)cc4OC)nc2-3)c1C` [Example 137, N-[1-[2-[2-(2-methoxyethoxy)ethoxy]ethyl]-3,5-dimethyl-pyrazol-4-yl]-2-[2-methoxy-4-(2-methoxyethoxy)anilino]-5,6-dihydropyrimido[4,5-e]indolizine-7-carboxamide], for which the IC50 is under 50 nM.

Turning to `CCc1cccc(CC)c1NC(=O)c1ccn2c1ccc1cnc(Nc3ccc(N4CCNCC4)cc3OC)nc12` [Example 77, N-(2,6-diethylphenyl)-2-(2-methoxy-4-piperazin-1-yl-anilino)pyrimido[4,5-e]indolizine-7-carboxamide], the IC50 was in the range of 50 to 150 nM.

In the case of `Cc1cc(N2CCN(C)CC2)ccc1Nc1ncc2c(n1)-n1ccc(C(=O)Nc3c(C)cccc3Cl)c1CC2` [Example 2, N-(2-chloro-6-methyl-phenyl)-2-[2-methyl-4-(4-methylpiperazin-1-yl)anilino]-5,6-dihydropyrimido[4,5-e]indolizine-7-carboxamide], the IC50 is under 50 nM.

For the molecule `COc1cc(OC2CCN(C)C2)ccc1Nc1ncc2c(n1)-n1ccc(C(=O)Nc3c(C)cccc3C)c1CC2` (centres unmarked) [Example 84, N-(2,6-dimethylphenyl)-2-[2-methoxy-4-(1-methylpyrrolidin-3-yl)oxy-anilino]-5,6-dihydropyrimido[4,5-e]indolizine-7-carboxamide], the IC50 was under 50 nM.

`COCC(=O)N1CCN(c2ccc(Nc3ncc4c(n3)-n3ccc(C(=O)Nc5c(C)cccc5C)c3CC4)c(OC)c2)CC1` [Example 105, N-(2,6-dimethylphenyl)-2-[2-methoxy-4-[4-(2-methoxyacetyl)piperazin-1-yl]anilino]-5,6-dihydropyrimido[4,5-e]indolizine-7-carboxamide]: the IC50 was under 50 nM.

On to `COc1cc(N2CCN(C)CC2)ccc1Nc1ncc2c(n1)-n1ccc(C(=O)Nc3c(C)cccc3Br)c1CC2` [Example 73, N-(2-bromo-6-methyl-phenyl)-2-[2-methoxy-4-(4-methylpiperazin-1-yl)anilino]-5,6-dihydropyrimido[4,5-e]indolizine-7-carboxamide], for which the IC50 was under 50 nM.

The record behind these values is USRE50082E1, “(5,6-dihydro)pyrimido[4,5-e]indolizines” (NETHERLANDS TRANSLATIONAL RESEARCH CENTER B.V., priority 2014, dated 2024).
